Measured values: patent publication US11708348B2, “Protease inhibitors for treatment of coronavirus infections” (The Scripps Research Institute, priority 2021, dated 2023)

tested on: SARS-CoV-2 strain USA-WA1/2020; assay: microbe, parasite or virus in culture; type: cell-based; conditions: Severe acute respiratory syndrome coronavirus 2, HeLa-ACE2, 24 h, HeLa-ACE2 cells, SARS-CoV-2 infection, 24 h; cells given as a bound; read-out: EC50, uM (Hela)

`CC(C)C[C@H](NC(=O)C(=O)Nc1ccccc1)C(=O)N[C@@H](C[C@@H]1CCNC1=O)C(O)COc1c(F)c(F)cc(F)c1F` (stereo partly drawn) [Compound 49, N1-((2S)-1-(((2S)-3-hydroxy-1-((S)-2-oxopyrrolidin-3-yl)-4-(2,3,5,6-tetrafluorophenoxy)butan-2-yl)amino)-4-methyl-1-oxopentan-2-yl)-N2-phenyloxalamide] was tested, and the EC50 was > 1 µM.

same assay, conditions: Severe acute respiratory syndrome coronavirus 2, HeLa-ACE2, 24 h, HeLa-ACE2 cells, SARS-CoV-2 infection, 24 h; class symbols; read-out: EC50, uM (Hela)

First: CO[C@@H](CC(C)C)C(=O)N1CC2(CC2)C[C@H]1C(=O)N[C@@H](C[C@@H]1CCNC1=O)C(=O)COC(F)(F)F [Compound 339, (S)-5-((S)-2-methoxy-4-methylpentanoyl)-N-((S)-3-oxo-1-((S)-2-oxopyrrolidin-3-yl)-4-(trifluoromethoxy)butan-2-yl)-5-azaspiro[2.4]heptane-6-carboxamide]
Second: CC(C)(C)[C@H](O)C(=O)N1CC2(CC2)C[C@H]1C(=O)N[C@@H](C[C@@H]1CCNC1=O)C(=O)COC(F)(F)F [Compound 344, (S)-5-((S)-2-hydroxy-3,3-dimethylbutanoyl)-N-((S)-3-oxo-1-((S)-2-oxopyrrolidin-3-yl)-4-(trifluoromethoxy)butan-2-yl)-5-azaspiro[2.4]heptane-6-carboxamide]
The EC50 of the first is higher: 0.05 to 0.2 µM for the first, < 0.05 µM for the second. The second is the more potent here.

`O=C1NCC[C@H]1C[C@H](NC(=O)[C@@H]1[C@H]2CCC[C@H]2CN1C(=O)C12CC(C(F)(F)F)(CO1)C2)C(=O)COC(F)(F)F` [Compound 315, (1S,3aR,6aS)-N-((S)-3-oxo-1-((S)-2-oxopyrrolidin-3-yl)-4-(trifluoromethoxy)butan-2-yl)-2-(4-(trifluoromethyl)-2-oxabicyclo[2.1.1]-hexane-1-carbonyl)-octahydrocyclopenta-[c]pyrrole-1-carboxamide] and `CCC[C@@H](O)C(=O)N1C[C@H]2[C@@H]([C@H]1C(=O)N[C@@H](C[C@@H]1CCNC1=O)C(=O)COC(F)(F)F)C2(C)C` [Compound 378, (1R,2S,5S)-3-((R)-2-hydroxypentanoyl)-6,6-dimethyl-N-((S)-3-oxo-1-((S)-2-oxopyrrolidin-3-yl)-4-(trifluoromethoxy)butan-2-yl)-3-azabicyclo[3.1.0]-hexane-2-carboxamide] cannot be ordered by EC50: < 0.05 µM for the first, < 0.05 µM for the second.

First: CC(C)C[C@H](NC(=O)C(=O)NC1(C)CCNC1)C(=O)N[C@@H](C[C@@H]1CCNC1=O)C(=O)COC(F)(F)F (stereo partly drawn) [Compound 252, N1-((S)-4-methyl-1-oxo-1-(((S)-3-oxo-1-((S)-2-oxopyrrolidin-3-yl)-4-(trifluoromethoxy)butan-2-yl)amino)pentan-2-yl)-N2-(3-methylpyrrolidin-3-yl)oxalamide]
Second: O=C(NC1CC(F)(F)C1)C(=O)N[C@@H](Cc1ccccc1)C(=O)N[C@@H](C[C@@H]1CCNC1=O)C(=O)COC(F)(F)F [Compound 182, N1-(3,3-difluorocyclobutyl)-N2-((S)-1-oxo-1-(((S)-3-oxo-1-((S)-2-oxopyrrolidin-3-yl)-4-(trifluoromethoxy)butan-2-yl)amino)-3-phenylpropan-2-yl)oxalamide]
The EC50 of the first is higher: 0.2 to 0.5 µM for the first, < 0.05 µM for the second.

First: CC(C)C[C@H](NC(=O)C(=O)NC1CC1)C(=O)N[C@@H](C[C@@H]1CCNC1=O)C(=O)COc1c(F)c(F)cc(F)c1F [Compound 98, N1-cyclopropyl-N2-((S)-4-methyl-1-oxo-1-(((S)-3-oxo-1-((S)-2-oxopyrrolidin-3-yl)-4-(2,3,5,6-tetrafluorophenoxy)butan-2-yl)amino)pentan-2-yl)oxalamide]
Second: O=C(Nc1ccccc1Cl)C(=O)N[C@@H](CC1CCCCC1)C(=O)N[C@@H](C[C@@H]1CCNC1=O)C(=O)COc1c(F)c(F)cc(F)c1F [Compound 92, N1-(2-chlorophenyl)-N2-((S)-3-cyclohexyl-1-oxo-1-(((S)-3-oxo-1-((S)-2-oxopyrrolidin-3-yl)-4-(2,3,5,6-tetrafluorophenoxy)butan-2-yl)amino)propan-2-yl)oxalamide]
The EC50 of the first is higher: 0.05 to 0.2 µM for the first, < 0.05 µM for the second. The second is the more potent here.

Work on `CC[C@H](O)C(=O)N1C[C@H]2[C@@H]([C@H]1C(=O)N[C@@H](C[C@@H]1CCNC1=O)C(=O)COC(F)(F)F)C2(C)C` [Compound 370, (1R,2S,5S)-3-((S)-2-hydroxybutanoyl)-6,6-dimethyl-N-((S)-3-oxo-1-((S)-2-oxopyrrolidin-3-yl)-4-(trifluoromethoxy)butan-2-yl)-3-azabicyclo[3.1.0]-hexane-2-carboxamide] yielded an EC50 of 0.05 to 0.2 µM.

same assay, conditions: Severe acute respiratory syndrome coronavirus 2, HeLa-ACE2, 24 h, HeLa-ACE2 cells, SARS-CoV-2 infection, 24 h; read-out: EC50, uM (Hela)

`O=C1NCC[C@H]1C[C@H](NC(=O)[C@@H]1CC2(CC2)CN1C(=O)C1CC(F)(F)C1)C(=O)COC(F)(F)F` [Compound 721, (S)-5-(3,3-difluorocyclobutane-1-carbonyl)-N-((S)-3-oxo-1-((S)-2-oxopyrrolidin-3-yl)-4-(trifluoromethoxy)butan-2-yl)-5-azaspiro[2.4]heptane-6-carboxamide] and `CC(C)(C)C(=O)N1CC2(CC2)C[C@H]1C(=O)N[C@@H](C[C@@H]1CCNC1=O)C(=O)COC(F)(F)F` [Compound 665, (S)-N-((S)-3-oxo-1-((S)-2-oxopyrrolidin-3-yl)-4-(trifluoromethoxy)butan-2-yl)-5-pivaloyl-5-azaspiro[2.4]heptane-6-carboxamide] fall in the same range of EC50: 0.05 to 0.2 µM for the first, 0.05 to 0.2 µM for the second.

`CC(C)C[C@H](NC(=O)c1cc(-c2ccccn2)on1)C(=O)N[C@@H](C[C@@H]1CCNC1=O)C(=O)COC(F)(F)F` [Compound 464, N-((S)-4-methyl-1-oxo-1-(((S)-3-oxo-1-((S)-2-oxopyrrolidin-3-yl)-4-(trifluoromethoxy)butan-2-yl)amino)pentan-2-yl)-5-(pyridin-2-yl)isoxazole-3-carboxamide] and `C[C@H](C(=O)N1C[C@H]2[C@@H]([C@H]1C(=O)N[C@@H](C[C@@H]1CCNC1=O)C(=O)COC(F)(F)F)C2(C)C)c1ccccc1` [Compound 629, (1R,2S,5S)-6,6-dimethyl-N-((S)-3-oxo-1-((S)-2-oxopyrrolidin-3-yl)-4-(trifluoromethoxy)butan-2-yl)-3-((S)-2-phenylpropanoyl)-3-azabicyclo[3.1.0]hexane-2-carboxamide] cannot be ordered by EC50: < 0.05 µM for the first, < 0.05 µM for the second.

First: CC1(NC(=O)C(=O)N2[C@H]3CC[C@H](C3)[C@H]2C(=O)N[C@@H](C[C@@H]2CCNC2=O)C(=O)COC(F)(F)F)CC1 [Compound 546, (1S,3S,4R)-2-(2-((l-methylcyclopropyl)-amino)-2-oxoacetyl)-N-((S)-3-oxo-1-((S)-2-oxopyrrolidin-3-yl)-4-(trifluoromethoxy)butan-2-yl)-2-azabicyclo-[2.2.1]heptane-3-carboxamide]
Second: CC1(C[C@H](NC(=O)C(=O)NC2(C)CC2)C(=O)N[C@@H](C[C@@H]2CCNC2=O)C(=O)COC(F)(F)F)CC1 [Compound 577, Nl-(l-methylcyclo-propyl)-N2-(3-(1-methylcyclopropyl)-1-oxo-1-(((S)-3-oxo-1-((S)-2-oxopyrrolidin-3-yl)-4-(trifluoromethoxy)butan-2-yl)amino)propan-2-yl)oxalamide]
The EC50 of the first is higher: 0.2 to 0.5 µM for the first, < 0.05 µM for the second.

First: O=C1NCC[C@H]1C[C@H](NC(=O)[C@@H]1CC2(CC2)CN1C(=O)[C@H](CO)c1ccccc1)C(=O)COC(F)(F)F [Compound 595, (S)-5-((S)-3-hydroxy-2-phenylpropanoyl)-N-((S)-3-oxo-1-((S)-2-oxopyrrolidin-3-yl)-4-(trifluoromethoxy)butan-2-yl)-5-azaspiro[2.4]-heptane-6-carboxamide]
Second: O=C1NCC[C@H]1C[C@H](NC(=O)[C@@H]1CC2(CC2)CN1C(=O)c1ncccc1F)C(=O)COC(F)(F)F [Compound 593, (S)-5-(3-fluoropicolinoyl)-N-((S)-3-oxo-1-((S)-2-oxopyrrolidin-3-yl)-4-(trifluoromethoxy)butan-2-yl)-5-azaspiro[2.4]-heptane-6-carboxamide]
The EC50 of the first is lower: 0.05 to 0.2 µM for the first, 0.2 to 0.5 µM for the second.

`O=C1NCC[C@H]1C[C@H](NC(=O)[C@@H]1[C@H]2CCC[C@H]2CN1C(=O)c1noc2c1COCC2)C(=O)COC(F)(F)F` [Compound 549, (1S,3aR,6aS)-2-(6,7-dihydro-4H-pyrano[3,4-d]isoxazole-3-carbonyl)-N-((S)-3-oxo-1-((S)-2-oxopyrrolidin-3-yl)-4-(trifluoromethoxy)butan-2-yl)octahydrocyclo-penta[c]pyrrole-1-carboxamide] and `CC(C)(C)NC(=O)C(=O)N1C[C@@H]2C(F)CC[C@@H]2[C@H]1C(=O)N[C@@H](C[C@@H]1CCNC1=O)C(=O)COC(F)(F)F` (stereo partly drawn) [Compound 601, (1S,3aR,6aS)-2-(2-(tert-butylamino)-2-oxoacetyl)-4-fluoro-N-((S)-3-oxo-1-((S)-2-oxopyrrolidin-3-yl)-4-(trifluoromethoxy)butan-2-yl)octahydrocyclo-penta[c]pyrrole-1-carboxamide] fall in the same range of EC50: 0.05 to 0.2 µM for the first, 0.05 to 0.2 µM for the second.

Compared with `CC(C)(C)NC(=O)C(=O)N1CC2(CCOCC2)CC1C(=O)N[C@@H](C[C@@H]1CCNC1=O)C(=O)COC(F)(F)F` (stereo partly drawn) [Compound 522, 2-(2-(tert-butylamino) -2-oxoacetyl)-N-((S)-3-oxo-1-((S)-2-oxopyrrolidin-3-yl)-4-(trifluoromethoxy)butan-2-yl)-8-oxa-2-azaspiro[4.5]decane-3-carboxamide], `CC(C)(NC(=O)C(=O)N1C[C@H]2CCCC[C@H]2C[C@H]1C(=O)N[C@@H](C[C@@H]1CCNC1=O)C(=O)COC(F)(F)F)C(F)(F)F` [Compound 487, (3S,4aS,8aS)-N-((S)-3-oxo-1-((S)-2-oxopyrrolidin-3-yl)-4-(trifluoromethoxy)butan-2-yl)-2-(2-oxo-2-((1,1,1-trifluoro-2-methylpropan-2-yl)amino)acetyl)-decahydroiso-quinoline-3-carboxamide] is lower in EC50: 0.5 to 1 µM for the first, 0.05 to 0.2 µM for the second. The second is the more potent here.

same assay, conditions: Severe acute respiratory syndrome coronavirus 2, HeLa-ACE2, 24 h, read-out: EC50, uM (Hela)

`CC(C)C[C@H](CC(=O)NCc1ccccc1F)C(=O)N[C@@H](C[C@@H]1CCNC1=O)C(=O)COc1c(F)c(F)cc(F)c1F` [Compound 54, (R)-N4-(2-fluorobenzyl)-2-isobutyl-N1-((S)-3-oxo-1-((S)-2-oxopyrrolidin-3-yl)-4-(2,3,5,6-tetrafluorophenoxy)butan-2-yl)succinamide] was tested, and the EC50 was > 1 µM.
